# Results published in paper PMC2745609 (Journal of medicinal chemistry, 2009).
# Legend:
# HIV-1 protease = HIV-1 protease (Human immunodeficiency virus type 1 group M subtype B, UniProt P04585); test: HIV-1 protease enzyme inhibition; assay type: biochemical; settings: for fold improvement of enzyme Ki over 17a: relative to 17a
# HIV-1lai = test: Antiviral activity in MT-2 human T-lymphoid cells exposed to HIV-1LAI, MTT assay; assay type: cell-based; settings: for IC50: Human immunodeficiency virus 1, MT2, in Homo sapiens
# [1] = tested on: HIV-1ERS104pre (wild-type); test: Anti-HIV activity in PHA-PBM, p24 Gag production, wild-type clinical isolate; assay type: cell-based; settings: Human immunodeficiency virus 1, PBMC, read-out: IC50 against HIV-1ERS104pre
SMILES,IC50 (HIV-1lai),IC50 [1],further results
"COc1ccc(S(=O)(=O)N(C[C@@H]2CCC(=O)N2)C[C@@H](O)[C@H](Cc2ccccc2)NC(=O)O[C@H]2CO[C@H]3OCC[C@H]32)cc1 [Inhibitor 17a, (3R,3aS,6aR)-Hexahydrofuro[2,3-b]furan-3-yl(2S,3R)-3-hydroxy-4-(4-methoxy-N-(((S)-5-oxopyrrolidin-2-yl)methyl)phenylsulfonamido)-1-phenylbutan-2-yl-carbamate]",–,–,"Ki (HIV-1 protease; Ki (nM), enzyme inhibitory potency): 1 nM"
"COc1ccc(S(=O)(=O)N(C[C@@H]2CCC(=O)N2)C[C@@H](O)[C@H](Cc2ccccc2)NC(=O)O[C@@H]2C[C@@H]3CCO[C@@H]3C2)cc1 [Inhibitor 17b, (3aS,5R,6aR)-Hexahydro-2H–cyclopenta[b]furan-5-yl-(2S,3R)-3-hydroxy-4-(4-methoxy-N-(((S)-5-oxopyrrolidin-2-yl)methyl)phenylsulfonamido)-1-phenylbutan-2-ylcarbamate]",–,–,fold improvement of enzyme Ki over 17a (HIV-1 protease): 3 fold
"Nc1ccc(S(=O)(=O)N(C[C@@H]2CCC(=O)N2)C[C@@H](O)[C@H](Cc2ccccc2)NC(=O)O[C@H]2CO[C@H]3OCC[C@H]32)cc1 [Inhibitor 18a, (3R,3aS,6aR)-Hexahydrofuro[2,3-b]furan-3-yl(2S,3R)-4-(4-amino-N-(((S)-5-oxopyrrolidin-2-yl)methyl)phenylsulfonamido)-3-hydroxy-1-phenylbutan-2-ylcarbamate]",> 1000 nM,–,–
"COc1ccc(S(=O)(=O)N(C[C@H]2CCC(=O)N2)C[C@@H](O)[C@H](Cc2ccccc2)NC(=O)O[C@H]2CO[C@H]3OCC[C@H]32)cc1 [Inhibitor 19a, (3R,3aS,6aR)-Hexahydrofuro[2,3-b]furan-3-yl(2S,3R)-3-hydroxy-4-(4-methoxy-N-(((R)-5-oxopyrrolidin-2-yl)methyl)phenylsulfonamido)-1-phenylbutan-2ylcarbamate]",–,–,fold improvement of enzyme Ki over 17a (HIV-1 protease): 10 fold
"COc1ccc(S(=O)(=O)N(C[C@H]2CCC(=O)N2)C[C@@H](O)[C@H](Cc2ccccc2)NC(=O)O[C@@H]2C[C@@H]3CCO[C@@H]3C2)cc1 [Inhibitor 19b, (3aS,5R,6aR)-Hexahydro-2H–cyclopenta[b]furan-5-yl-(2S,3R)-3-hydroxy-4-(4-methoxy-N-(((R)-5-oxopyrrolidin-2-yl)methyl)phenylsulfonamido)-1-phenylbutan-2-ylcarbamate]",–,28 nM,fold improvement in antiviral activity relative to 17b (HIV-1lai; relative to epimeric (S)-pyrrolidinone derivative 17b): 10 fold
"Nc1ccc(S(=O)(=O)N(C[C@@H]2COC(=O)N2)C[C@@H](O)[C@H](Cc2ccccc2)NC(=O)O[C@H]2CO[C@H]3OCC[C@H]32)cc1 [Inhibitor 30, (3R,3aS,6aR)-hexahydrofuro[2,3-b]furan-3-yl-(2S,3R)-4-(4-amino-N-(((R)-2-oxooxazolidin-4-yl)methyl)phenylsulfonamido)-3-hydroxy-1-phenylbutan-2-ylcarbamate]",> 1000 nM,–,–
"CC(C)CN(C[C@@H](O)[C@H](Cc1ccccc1)NC(=O)O[C@H]1CCOC1)S(=O)(=O)c1ccc(N)cc1 [amprenavir, reference compound]",30 nM,25 nM,–
"CC(C)(C)NC(=O)[C@@H]1CN(Cc2cccnc2)CCN1C[C@@H](O)C[C@@H](Cc1ccccc1)C(=O)N[C@H]1c2ccccc2C[C@H]1O [indinavir, reference compound]",30 nM,28 nM,–
"CC(C)(C)NC(=O)[C@@H]1C[C@@H]2CCCC[C@@H]2CN1C[C@@H](O)[C@H](Cc1ccccc1)NC(=O)[C@H](CC(N)=O)NC(=O)c1ccc2ccccc2n1 [saquinavir, reference compound]",15 nM,–,–
